From patent US20250270180A1, “MEK INHIBITORS AND THERAPEUTIC USES THEREOF” (Immuneering Corporation, priority 2020, published 2025)

Columns and labels:
[1] = Kinetic solubility (PBS pH 7.4; 4 hr); format: physicochemical; conditions: 10 mM PBS buffer, aqueous buffer, kinetic from dmso stock
Procedure: The plates were shaken for 4 h at room temperature in an Eppendorf Thermomixer. After incubation, the plates were centrifuged for 20 minutes at 4680 rpm. From the supernatant, 150 uL was transferred to a new 96 well plate and 50 uL DMSO was added to ensure continued dissolution. Samples were measured on LC-UV at injection volumes of 1 and 8 uL. Peak areas were determined and compared to peak areas obtained using calibration curves of the test compounds in DMSO.

A549 (KRAS-G12S) pERK = experiment: Cell-based pERK dose response study, A549; conditions: Homo sapiens; A549; 12-point dose; 2 hours
Procedure: Materials and Methods: A549 or A375 cells were seeded in 6-well plates at an appropriate seeding density on day 0. On day 2 or 3, after checking the health and confluency of cells, the media was aspirated and replaced with 1 mL media containing a predetermined concentration of compound and incubated for 2 hours. After 2 hours, the media was aspirated, and the cells washed 2 times with cold PBS. Cells were lysed on ice, with 50 uL 1×CST lysis buffer+1 mM PMSF for 5 minutes. After 5 minutes, cells were removed using a scraper and transferred to cold 1.5 mL tubes, and centrifuged for 10 min, 4° C., 14,000×g. Supernatant was gently removed and snap frozen in liquid nitrogen. Protein concentration of the lysate was determined using Bradford Reagent (analyzed using SpectraMax M2E) and diluted to 1 mg/mL or pERK or 1.5 mg/mL for pMEK analysis. […] All dilutions were in Milk-free antibody diluent.

[2] = Mouse liver microsome stability (t1/2, Clint); format: in vitro ADME; conditions: liver microsomes, pH 7.4, 0.5 mg/ml microsomal protein
Procedure: (Eppendorf 5804R). […] The disappearance of the parent compound was determined.

[3] = eLogD (lipophilicity; pH 7.4); format: physicochemical
Procedure: Test compounds were dissolved in DMSO at a concentration of 10 mM and further diluted with methanol: water 1:1. Samples were analyzed using gradient HPLC with three different isocratic mobile phases of 0.25% octanol in methanol (60, 65 and 70%) and 20 mM MOPS buffer (pH 7.4) with decylamine. If needed, (for low ElogDoct compounds) the isocratic mobile phases were adjusted to e.g. 40, 45 and 50% methanol. Peaks were detected using a diode array at absorbance 220-320 nm.
Capacity factors data (k′ _=(tr−_t0)/t0) obtained at various amounts of methanol were extrapolated to 0% methanol and k′w values are determined using a linear procedure. ElogDoct (7.4) is calculated using a series of reference standards with known Log D values. Each experiment was performed in triplicate.

PAMPA (pH 7.4) = conditions: PAMPA
Procedure: Each stock solution was diluted to 50 uM in pH 7.4 Prisma HT buffer (pION) and 200 ul was added to each well of the donor plate in triplicate. The polyvinylidene fluoride (PVDF, 0.45 μm) filter membrane on the acceptor plate was coated with 5 ul gastrointestinal tract lipid formulation (GIT-0, pION) and to each well of the acceptor plate, 200 μl of acceptor sink buffer (pION) was added. The acceptor filter plate was then carefully placed on top of the donor plate to form a sandwich. The sandwich was incubated at 25° C. for 4 h without stirring. UV-vis spectra of the solutions in the blank, reference, acceptor and donor plates were measured using a microplate reader (Tecan Infinite 200PRO M Nano Plus). Permeability values were calculated using the PAMPA explorer software v. 3.8.0.2 (pION).

[4] = Single dose PK profile (plasma and tumor) in Colon26 tumor bearing mice; format: in vivo; conditions: female, mouse
Procedure: Female mice (either athymic BALC/c nude, or BALB/c mice) were inoculated with a single subcutaneous injection of 0.1 ml of mouse Colon-26 cell suspension (1×10^5 cells per animal) in the right flank region. Colon26 (C26) tumor bearing mice received a single dose (3-4 mice/treatment) of vehicle (10% DMSO/90% [20% SBE-B-CD in saline], pH 5) containing compounds at indicated dose by gavage (p.o.) or intravenous administration (i.v.) and at various time points (0.16, 0.5, 1, 2, 4, 8, 12, 16, 24-hour) post dose humanely euthanized. Blood was obtained through cardiac puncture into K+EDTA tubes, mixed by inversion and centrifuged to obtain the plasma. Tissues were excised, cleaned of surrounding tissues. All samples immediately snap frozen in liquid N2 prior to LC-MS/MS analysis (using Agilent Poroshell-120 EC-C18 (4.0 μm) 2.1×50 mm, and a Water+API-4000 Electrospray MS unit). The results of this study are illustrated in FIGS. 16, and 17. Tables 11 describes a single does PK profile (plasma) and Table 12 describes a single dose PK profile (tumor).

A549 pMEK:tMEK (CRAF) = experiment: CRAF-bypass pMEK:tMEK, A549; format: cell-based
Procedure: Materials and Methods: A549 or A375 cells were seeded in 6-well plates at an appropriate seeding density on day 0. On day 2 or 3, after checking the health and confluency of cells, the media was aspirated and replaced with 1 mL media containing a predetermined concentration of compound and incubated for 2 hours. After 2 hours, the media was aspirated, and the cells washed 2 times with cold PBS. Cells were lysed on ice, with 50 uL 1×CST lysis buffer+1 mM PMSF for 5 minutes. After 5 minutes, cells were removed using a scraper and transferred to cold 1.5 mL tubes, and centrifuged for 10 min, 4° C., 14,000×g. Supernatant was gently removed and snap frozen in liquid nitrogen. Protein concentration of the lysate was determined using Bradford Reagent (analyzed using SpectraMax M2E) and diluted to 1 mg/mL or pERK or 1.5 mg/mL for pMEK analysis. Cell lysates were then analyzed for phosphor-ERK/total-ERK levels on a Jess system (ProteinSimple; Cat #JS3346) using the following antibodies: tERK1/2 (CST 4696; 1:50) and pERK1/2 (CST 4377; 1:50). […]
A549 or […] cells were treated in duplicate for two hours with compounds at varying concentrations. […] After storage, the lysate was quantified with the Bradford assay. Before the lysates were prepared to run on the Jess, the lysates were diluted to 1 mg/mL for pERK analysis and 1.5 mg/mL pMEK analysis using quantitative Western blotting. […]

[5] = Human liver microsome stability (t1/2, Clint); format: in vitro ADME; conditions: microsomes, pH 7.4, 0.5 mg/ml microsomal protein
CYP450 2D6 = CYP450 2D6 (Homo sapiens, UniProt P10635)
in vitro = conditions: human, Caco-2
[6] = Inv New Drugs (2018) 36, 1037-1043; cited from earlier work
[7] = athymic BALB/c nude or BALB/c, iv, 25 mg/kg, plasma, 25 mpk i.v.
[8] = athymic BALB/c nude or BALB/c, po, 25 mg/kg, plasma, 25 mpk p.o.
[9] = athymic BALB/c nude or BALB/c, po, 100 mg/kg, plasma, 100 mpk p.o.
[10] = iv, 25 mg/kg, plasma, 25 mpk i.v.
[11] = iv, 25 mg/kg, tumor, 25 mpk i.v.
[12] = po, 25 mg/kg, plasma, 25 mpk p.o.
[13] = po, 25 mg/kg, tumor, 25 mpk p.o.
[14] = po, 100 mg/kg, plasma, 100 mpk p.o.
[15] = po, 100 mg/kg, tumor, 100 mpk p.o.

Chain of CYP450 2D6 (P10635 whole entry): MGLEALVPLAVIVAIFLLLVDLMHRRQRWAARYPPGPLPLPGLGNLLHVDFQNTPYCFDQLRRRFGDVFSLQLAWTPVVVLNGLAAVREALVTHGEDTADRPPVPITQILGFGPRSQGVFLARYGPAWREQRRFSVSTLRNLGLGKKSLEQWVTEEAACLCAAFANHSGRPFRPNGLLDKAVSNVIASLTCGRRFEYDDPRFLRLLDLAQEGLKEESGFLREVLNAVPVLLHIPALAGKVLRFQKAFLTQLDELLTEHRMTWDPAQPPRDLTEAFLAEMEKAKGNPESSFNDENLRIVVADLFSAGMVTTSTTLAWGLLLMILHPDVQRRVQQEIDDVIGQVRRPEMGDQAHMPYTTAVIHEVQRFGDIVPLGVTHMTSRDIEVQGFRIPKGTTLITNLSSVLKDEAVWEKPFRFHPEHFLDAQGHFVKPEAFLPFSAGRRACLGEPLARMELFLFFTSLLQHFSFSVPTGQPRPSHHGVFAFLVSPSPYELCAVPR

Molecule `CNS(=O)(=O)Nc1cccc(Cc2c(CN3CCC3)c3ccc(OC(=O)N(C)C)cc3oc2=O)c1F` [Compound 197] has a solubility kinetic at 4 h [1] greater than 80 µM, an IC50 (A549 (KRAS-G12S) pERK) of 4.3 nM and a half-life at 1 uM [2] of 53 min. The microsomal CLint at 1 uM [2] was 26 µL/min/mg, the chromatographic logD [3] was 2.9 and the Papp at 4 h, 50 uM (PAMPA (pH 7.4)) was 51 ×10⁻⁶ cm/s. The Tmax [4, 7] was 9.6 min, the half-life [4, 7] was 143 min and the bioavailability [4, 8] was 47%. The half-life [4, 8] was 73.8 min, the bioavailability [4, 9] was 100% and the half-life [4, 9] was 82.8 min. The AUC(0-inf) [4, 10] was 7740 ng·h/mL, the AUC(0-t) [4, 10] was 7730 ng·h/mL and the Cmax [4, 10] was 10900 ng/mL. For the same molecule, the AUC(0-inf) [4, 11] was 8360 ng·h/mL, the AUC(0-t) [4, 11] was 8320 ng·h/mL and the Cmax [4, 11] was 6750 ng/mL. It also gave a Tmax [4, 11] of 30 min, an AUC(0-inf) [4, 12] of 3650 ng·h/mL and an AUC(0-t) [4, 12] of 3640 ng·h/mL. It also gave a Cmax [4, 12] of 2320 ng/mL, a Tmax [4, 12] of 30 min and an AUC(0-t) [4, 13] of 3460 ng·h/mL. It also gave a Cmax [4, 13] of 1920 ng/mL, a Tmax [4, 13] of 60 min and a bioavailability [4, 13] of 42%. The AUC(0-inf) [4, 14] was 31100 ng·h/mL, the AUC(0-t) [4, 14] was 31100 ng·h/mL and the Cmax [4, 14] was 14200 ng/mL. For the same molecule, the Tmax [4, 14] was 9.6 min, the AUC(0-inf) [4, 15] was 37100 ng·h/mL and the AUC(0-t) [4, 15] was 36900 ng·h/mL. The Cmax [4, 15] was 12600 ng/mL, the Tmax [4, 15] was 60 min and the bioavailability [4, 15] was 111%. The “CRAF A549 pMEK:tMEK [100 nM; 2 hr]” value (A549 pMEK:tMEK (CRAF)) was 0.49 and the half-life at 1 uM [5] was 38 min.

For `C=C[C@H]1C[N@@]2CC[C@H]1C[C@@H]2[C@@H](O)c1ccnc2ccc(OC)cc12` [Quinidine], the “2D6*” value (CYP450 2D6) was 99.7.

`CC(=O)CC(c1ccccc1)c1c(O)c2ccccc2oc1=O` (centres unmarked) [Warfarin] gave a Papp A→B at 2 h, 10 μM (in vitro) greater than 1 ×10⁻⁶ cm/s.

For `Cn1cnc2c(F)c(Nc3ccc(Br)cc3F)c(C(=O)NOCCO)cc21` [binimetinib], the “muscle gain in patients with BTC” value [6] is given as “promote muscle gain”.
